Patent publication US11672797B2, “Methods of treating keloids” (Hampton University, priority 2019, dated 2023)

Experiments:
Type in all cases: cell-based, human
[1] = tested on: Keloid fibroblast (KF) cells (CRL1762); assay: Example 1: Hoechst / propidium iodide staining of keloid fibroblasts after 16 h treatment; settings: for number of KF cells: 40 μM KC7F2, 25 uM IDF-11774, 25 uM PX-478, 10 mM 2-DG, compared to control untreated cells, FIGS. 4A-B
[2] = tested on: Keloid fibroblast (KF) cells (CRL1762); assay: Example 2: phalloidin / DAPI staining of keloid fibroblasts, 10,000 cells per well; settings: 16 hours
Procedure: (§1) Keloid fibroblast (KF) cells (CRL1762) and normal skin fibroblasts (NF, CRL2439) were both purchased from the American Type Culture Collection (ATCC, Manassas, Va.). This assay compared the effects of KC7F2 versus the glycolytic inhibitor 2-DG on the cellular consequences of HIF-1 functional blockade.
(§2) For each human skin fibroblast, 10,000 cells were plated per well. Each well was treated and incubated for 16 hours with the following: Control, no chemical treatment; 40 μM KC7F2; 10 mM 2-deoxyglucose (2-DG), a glycolysis inhibitor; and both 40 μM KC7F2 and 10 mM 2-DG. Cells were stained with phalloidin for filamentous actin and cells were labelled DAPI (4′,6-diamidino-2-phenylindolepropridium iodide) to indicate dying cells. Images were taken at a magnification of 4 times (4×) and 10 times (10×).

[3] = tested on: Keloid fibroblast (KF) cells (CRL1762); assay: Example 3: phalloidin / DAPI staining of keloid fibroblasts, 20,000 cells per well; settings: 16 hours
Procedure: as §1
as §2, with “20,000 cells,” for “10,000 cells”

Row | SMILES | proliferation ([1]; 10 mM 2-DG alone) | proliferation ([2]; 10 mM 2-DG alone) | proliferation ([3]; 10 mM 2-DG alone) | number of KF cells [1] | number of KF cells ([2]; 40 μM KC7F2, FIGS. 5A, 6A) | number of KF cells ([3]; 40 μM KC7F2, FIGS. 7A, 8A)
1 | O=CC[C@@H](O)[C@H](O)[C@H](O)CO [2-DG, 2-deoxyglucose] | insufficient to impede proliferation to an appreciable amount | insufficient to impede proliferation to an appreciable amount | insufficient to impede proliferation to an appreciable amount |  |  | 
2 | CN1CCN(C(=O)COc2ccc(C34CC5CC(CC(C5)C3)C4)cc2)CC1 [IDF-11774, 2-(4-((3r,5r,7r)-adamantan-1-yl)phenoxy)-1-(4-methylpiperazin-1-yl)ethan-1-one] |  |  |  | worked less well, but showed the same trend |  | 
3 | O=S(=O)(NCCSSCCNS(=O)(=O)c1cc(Cl)ccc1Cl)c1cc(Cl)ccc1Cl [KC7F2] |  |  |  | reduced the number of KF cells consistently and the best | reduced the number of KF cells consistently and the best | reduced the number of KF cells consistently and the best
